Experimental data published in patent EP4640240A1, “PEPTIDE-BASED RADIOPHARMACEUTICALS FOR NON-INVASIVE IMAGING OF THE FUNCTIONAL LIVER RESERVE” (Medizinische Universität Innsbruck, priority 2024, dated 2025).
Read-outs that look alike come from different tables or passages of the source.

What was measured:
[1] = Biodistribution studies in BALB/c mice; type: in vivo; conditions: female, mouse, iv, total radioactivity, healthy BALB/c mice, 0.1 nmol i.v.; for tissue uptake at 10 min: 10 min p.i.; for tissue uptake at 0.5 h: 30 min p.i.; for tissue uptake at 1 h: 60 min p.i.
Description: For biodistribution studies 6-week-old female BALB/c mice (n=3) were injected with 0.1 nmol (100 µL, approx. 1 MBq) of labelled compound via the lateral tail vein and sacrificed after 10, 30, or 60 min by cervical dislocation. The mice were dissected, blood and organs (spleen, pancreas, stomach, intestine, liver, kidney, heart, lung, muscle and bone) were weighed and their activity measured in a γ-counter. For blocking experiments, mice were co-injected with 27.7 µmοl N-acetylgalactose.

[2] = Stability in human blood serum (radio-HPLC); type: in vitro ADME; conditions: 37 °C
Description: Ligand stability in human blood serum (n = 2) and PBS (pH = 6.5) (n = 1) was determined for different time points (2 min, 30 min, 60 min, 120 min). Therefore, approx. 5 MBq of radioligand was added to 1 mL of fresh human serum at 37 °C or PBS at rt. At each given time point 100 µL of the mixture were transferred to a 1.5 mL Eppendorf tube containing 100 µL of acetonitrile. The vial was vortexed and centrifuged for 2 min at 14,000 1/min before 100 µL of the supernatant were diluted with 200 µL of water and injected into analytical radio-HPLC. The PBS solution was directly injected into the radio-HPLC. Ligand stability was determined by integrating the areas of the signals in the radio chromatogram in relation to the signal of the intact ligand.

[3] = Partition coefficient logD (n-octanol/PBS); type: physicochemical; conditions: n=6
Description: For determination of logarithmic partition coefficients (logD) n-Octanol (500 µL) and PBS (500 µL) were pipetted into eight 1.5 mL Protein Low-Bind Eppendorf tubes followed by addition of 300 kBq of labelled compound. The vials were vortexed for 5 min at 1,500 1/min and then centrifuged for 5 min at 20,000 rcf (Eppendorf Centrifuge 5424). Aliquots of 100 µL were taken out of each phase and the amount of activity was quantified in a γ-counter (Perkin Elmer 2480 Wizard2 3"; Waltham, Massachusetts, USA).

[4] = Protein binding in human serum (MicroSpin G-50 columns); type: in vitro ADME; conditions: fresh human serum, 37 °C, n=3
Description: Protein binding was determined for different time points (2 min, 30 min, 60 min, 120 min) in triplicates using Sephadex MicroSpin G-50 columns (GE-Healthcare, Chicago, Illinois, USA). The columns were spun initially at 20,000 rcf for 1 min to remove the storage buffer. Then approx. 5 MBq of radioligand was added to 1 mL of fresh human serum and incubated at 37 °C. At each given timepoint 25 µL of the mixture was loaded on to the column, which was then spun at 20,000 rcf for 1 min. The activity content on the column (free radioligand) and in the filtrate (protein bound fraction) was quantified in a γ-counter.

[5] = Blood, read-out: Biodistribution data, Blood
[6] = Femur, read-out: Biodistribution data, Femur
[7] = Heart, read-out: Biodistribution data, Heart
[8] = Intestine, read-out: Biodistribution data, Intestine
[9] = Kidneys, read-out: Biodistribution data, Kidneys
[10] = Liver, read-out: Biodistribution data, Liver
[11] = Lung, read-out: Biodistribution data, Lung
[12] = Muscle, read-out: Biodistribution data, Muscle
[13] = Pancreas, read-out: Biodistribution data, Pancreas
[14] = Spleen, read-out: Biodistribution data, Spleen
[15] = Stomach, read-out: Biodistribution data, Stomach

Question: For NC(=O)CNC(=O)CNC(=O)[C@H](CCCCNC(=O)CCCCc1cn(C2O[C@H](CO)[C@H](O)[C@H](O)[C@H]2O)nn1)NC(=O)CNC(=O)CNC(=O)[C@H](CCCCNC(=O)CCCCc1cn(C2O[C@H](CO)[C@H](O)[C@H](O)[C@H]2O)nn1)NC(=O)CNC(=O)CNC(=O)[C@H](CCCCNC(=O)CCCCc1cn(C2O[C@H](CO)[C@H](O)[C@H](O)[C@H]2O)nn1)NC(=O)CNC(=O)CNC(=O)[C@H](CCCCNC(=O)CCCCc1cn(C2O[C@H](CO)[C@H](O)[C@H](O)[C@H]2O)nn1)NC(=O)CNC(=O)CNC(=O)[C@H](CCCCNC(=O)CCCCc1cn(C2O[C@H](CO)[C@H](O)[C@H](O)[C@H]2O)nn1)NC(=O)CNC(=O)CNC(=O)[C@H](CCCCNC(=O)CCCCc1cn(C2O[C@H](CO)[C@H](O)[C@H](O)[C@H]2O)nn1)NC(=O)CCCNC(=O)CC[C@H](C(=O)O)N1CCN(CC(=O)O)CCN(CC(=O)O)CC1 (stereo partly drawn) [[68Ga]Ga-HexaLysan, metal not drawn], which tissue uptake at 10 min [1, 5] is on record?
Answer: Its tissue uptake at 10 min is 2.1 ± 0.04 %ID/g.

Question: And the tissue uptake at 0.5 h [1, 5]?
Answer: The tissue uptake at 0.5 h was 0.63 ± 0.07 %ID/g.

Question: And the tissue uptake at 1 h [1, 5]?
Answer: The tissue uptake at 1 h was 1.05 ± 0.41 %ID/g.

Question: And the tissue uptake at 10 min [1, 6]?
Answer: Its tissue uptake at 10 min is 0.48 ± 0.06 %ID/g.

Question: And the tissue uptake at 0.5 h [1, 6]?
Answer: Its tissue uptake at 0.5 h is 0.33 ± 0.03 %ID/g.

Question: And the tissue uptake at 1 h [1, 6]?
Answer: The tissue uptake at 1 h was 0.002 ± 0.001 %ID/g.

Question: And the tissue uptake at 10 min [1, 7]?
Answer: Its tissue uptake at 10 min is 0.94 ± 0.05 %ID/g.

Question: What about the tissue uptake at 0.5 h [1, 7] of the same compound?
Answer: The tissue uptake at 0.5 h was 0.37 ± 0.09 %ID/g.

Question: What about the tissue uptake at 1 h [1, 7] of the same compound?
Answer: Its tissue uptake at 1 h is 0.25 ± 0.02 %ID/g.

Question: What about the tissue uptake at 10 min [1, 8] of the same compound?
Answer: Its tissue uptake at 10 min is 1.19 ± 0.25 %ID/g.

Question: What about the tissue uptake at 0.5 h [1, 8] of the same compound?
Answer: Its tissue uptake at 0.5 h is 3.97 ± 0.28 %ID/g.

Question: What about the tissue uptake at 1 h [1, 8] of the same compound?
Answer: Its tissue uptake at 1 h is 5.94 ± 1.67 %ID/g.

Question: What about the tissue uptake at 10 min [1, 9] of the same compound?
Answer: The tissue uptake at 10 min was 4.83 ± 0.3 %ID/g.

Question: And the tissue uptake at 0.5 h [1, 9]?
Answer: The tissue uptake at 0.5 h was 1.94 ± 0.22 %ID/g.

Question: And the tissue uptake at 1 h [1, 9]?
Answer: The tissue uptake at 1 h was 1.34 ± 0.34 %ID/g.

Question: What about the tissue uptake at 10 min [1, 10] of the same compound?
Answer: The tissue uptake at 10 min was 54.8 ± 3.02 %ID/g.

Question: And the tissue uptake at 0.5 h [1, 10]?
Answer: The tissue uptake at 0.5 h was 55.5 ± 7.37 %ID/g.

Question: What about the tissue uptake at 1 h [1, 10] of the same compound?
Answer: The tissue uptake at 1 h was 45.9 ± 11.8 %ID/g.

Question: What about the tissue uptake at 10 min [1, 11] of the same compound?
Answer: The tissue uptake at 10 min was 1.61 ± 0.16 %ID/g.

Question: And the tissue uptake at 0.5 h [1, 11]?
Answer: The tissue uptake at 0.5 h was 0.77 ± 0.11 %ID/g.

Question: And the tissue uptake at 1 h [1, 11]?
Answer: Its tissue uptake at 1 h is 0.62 ± 0.19 %ID/g.

Question: And the tissue uptake at 10 min [1, 12]?
Answer: The tissue uptake at 10 min was 0.93 ± 0.12 %ID/g.

Question: And the tissue uptake at 0.5 h [1, 12]?
Answer: The tissue uptake at 0.5 h was 0.57 ± 0.03 %ID/g.

Question: What about the tissue uptake at 1 h [1, 12] of the same compound?
Answer: Its tissue uptake at 1 h is 0.41 ± 0.04 %ID/g.

Question: What about the tissue uptake at 10 min [1, 13] of the same compound?
Answer: Its tissue uptake at 10 min is 0.91 ± 0.05 %ID/g.

Question: What about the tissue uptake at 0.5 h [1, 13] of the same compound?
Answer: The tissue uptake at 0.5 h was 0.69 ± 0.12 %ID/g.

Question: And the tissue uptake at 1 h [1, 13]?
Answer: Its tissue uptake at 1 h is 0.48 ± 0.13 %ID/g.

Question: And the tissue uptake at 10 min [1, 14]?
Answer: The tissue uptake at 10 min was 0.5 ± 0.07 %ID/g.

Question: What about the tissue uptake at 0.5 h [1, 14] of the same compound?
Answer: Its tissue uptake at 0.5 h is 0.21 ± 0.06 %ID/g.

Question: What about the tissue uptake at 1 h [1, 14] of the same compound?
Answer: Its tissue uptake at 1 h is 0.17 ± 0.02 %ID/g.

Question: What about the tissue uptake at 10 min [1, 15] of the same compound?
Answer: The tissue uptake at 10 min was 1.29 ± 0.28 %ID/g.

Question: And the tissue uptake at 0.5 h [1, 15]?
Answer: Its tissue uptake at 0.5 h is 1.19 ± 0.28 %ID/g.

Question: And the tissue uptake at 1 h [1, 15]?
Answer: The tissue uptake at 1 h was 0.4 ± 0.14 %ID/g.

Question: What about the remaining at 2 min ([2]; 2 min, n=2, read-out: Serum stability (% of intact ligand)) of the same compound?
Answer: Its remaining at 2 min is 99.4 ± 0.2%.

Question: What about the “Serum stability (% of intact ligand)” value ([2]; 30 min, n=2) of the same compound?
Answer: Its value is 99.7 ± 0.1%.

Question: And the remaining at 1 h ([2]; 60 min, n=2, read-out: Serum stability (% of intact ligand))?
Answer: Its remaining at 1 h is 99.9 ± 0.1%.

Question: What about the remaining at 2 h ([2]; 120 min, n=2, read-out: Serum stability (% of intact ligand)) of the same compound?
Answer: The remaining at 2 h was 99.9 ± 0.1%.

Question: And the logD [3]?
Answer: Its logD is -4.34 ± 0.13.

Question: And the fraction unbound ([4]; 2 min)?
Answer: Its fraction unbound is 0.824.

Question: And the fraction unbound ([4]; 30 min)?
Answer: The fraction unbound was 0.782.

Question: What about the fraction unbound ([4]; 60 min) of the same compound?
Answer: The fraction unbound was 0.82.

Question: What about the fraction unbound at 120 min, 5 MBq/mL ([4]; 120 min) of the same compound?
Answer: The fraction unbound at 120 min, 5 MBq/mL was 0.748.
